ChEMBL document CHEMBL1151245, “Structures and histamine release inhibitory effects of prenylated orcinol derivatives from Rhododendron dauricum” (J Nat Prod, 2004)

tested on: Mast cell; assay: Inhibition of compound 48/80-induced histamine release in Wistar rat peritoneal mast cells; format: functional, cell-based; call rule not given here

Q: How did the IC50 turn out when `C=C(C)C(O)CC/C(C)=C/CC[C@]1(C)C=Cc2c(O)cc(C)cc2O1` (stereo partly drawn) [DAURICHROMENE A] was run?
A: Its IC50 is 1.6 µM.

Q: With `COc1ccc2c(c1)c(CC(=O)O)c(C)n2C(=O)c1ccc(Cl)cc1` [INDOMETHACIN] as the molecule, how does the IC50 read?
A: Its IC50 is 250 µM.

Q: `CC(C)=CCC/C(C)=C/CC/C(C)=C/Cc1c(O)cc(C)cc1O` [GRIFOLIN] was tested. Which IC50 did it give?
A: Its IC50 is 81.6 µM.

Q: For `Cc1cc(O)cc(O)c1` [ORCINOL], which IC50 is on record?
A: Its IC50 is “Not Active”.

Q: How did the IC50 turn out when `CC(C)=CCC/C(C)=C/CC[C@]1(C)C=Cc2c(O)cc(C)cc2O1` [CONFLUENTIN] was run?
A: Its IC50 is 205 µM.

Q: With `C/C(=C\CC/C(C)=C/CC[C@]1(C)C=Cc2c(O)cc(C)cc2O1)CO` [DAURICHROMENE D] as the molecule, how does the IC50 read?
A: The IC50 was 1.3 µM.

Q: For `C=C(CCC=C(C)C)C(O)CC[C@]1(C)C=Cc2c(O)cc(C)cc2O1` (stereo partly drawn) [DAURICHROMENE B], which IC50 is on record?
A: Its IC50 is 4.4 µM.

Q: For `C/C(=C\CC[C@]1(C)C=Cc2c(O)cc(C)cc2O1)C/C=C\C(C)(C)O` [DAURICHROMENE C], which IC50 is on record?
A: The IC50 was 87.4 µM.
